Reference: ChEMBL document CHEMBL5729018, “MAPK inhibitors” (2022)

Legend:
[1] = target: T1, Mitogen-activated protein kinase 14 (Homo sapiens, UniProt Q16539); assay: Each binding data point was carried out in duplicate or triplicate. Data were recorded in millipolarisation (mP) units and measured at an excitation wavelength of 485 nm and an emission wavelength of 520 nm. Tris(hydroxymethyl)aminomethane (Tris) assay buffer was used in all binding experiments and consisted of 10 mM Tris, 50 nM potassium chloride, and 3.5 mM 3-((3-cholamidopropyl)dimethylammonium)-1-propanesulfonate (Chaps) at pH 8.0.
[2] = target: T1, Mitogen-activated protein kinase 14; assay: (§1) Fluorescence polarisation (FP) assay for active p38alpha MARK: FP signals were measured with a PHERAstar microplate reader (BMG Labtech) using black, low-binding half-area 96 well plates (Corning). Each binding data point was carried out in duplicate or triplicate. Data were recorded in millipolarisation (mP) units and measured at an excitation wavelength of 485 nm and an emission wavelength of 520 nm. Tris(hydroxymethyl)aminomethane (Tris) assay buffer was used in all binding experiments and consisted of 10 mM Tris, […], and 3.5 mM 3-((3-cholamidopropyl)dimethylammonium)-1-propanesulfonate (Chaps) at pH 8.0. The recombinant active His-tag p38α MAPK used in the ligand binding assays were prepared as described by Bukhtiyarova et al.
[3] = target: T1, Mitogen-activated protein kinase 14; assay: as §1, with “assay:” for “assay for active p38alpha MARK:”, “8.0.” for “8.0. The recombinant active His-tag p38α MAPK used in the ligand binding assays were prepared as described by Bukhtiyarova et al.”

T1 sequence (Q16539 whole entry): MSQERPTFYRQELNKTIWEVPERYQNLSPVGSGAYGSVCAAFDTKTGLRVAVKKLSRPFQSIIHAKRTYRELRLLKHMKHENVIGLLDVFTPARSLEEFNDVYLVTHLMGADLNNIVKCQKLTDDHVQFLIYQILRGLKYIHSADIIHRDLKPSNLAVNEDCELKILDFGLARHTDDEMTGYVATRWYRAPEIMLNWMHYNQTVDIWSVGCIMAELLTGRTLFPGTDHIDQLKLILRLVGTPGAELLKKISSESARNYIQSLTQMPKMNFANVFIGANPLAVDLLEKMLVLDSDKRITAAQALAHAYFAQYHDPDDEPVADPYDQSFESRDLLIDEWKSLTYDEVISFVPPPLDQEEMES

| Compound | Ki [1] | Ki [2] | IC50 [3] |
| --- | --- | --- | --- |
| OCC#Cc1cc(-c2ccncc2)c(-c2ccc(F)cc2)s1 | 2100 nM | 630 nM |  |
| OCCC#Cc1cc(-c2ccncc2)c(-c2ccc(F)cc2)s1 | 2000 nM | 560 nM | 160 nM |
| OCCC#Cc1nc(-c2ccc(F)cc2)c(-c2ccncc2)n1CCCc1ccccc1 [RWJ-67657] |  |  | 30 nM |
